Test results reported in publication PMC10239758 (European journal of medicinal chemistry, 2023).
Converted amounts (≈) assume the structure as drawn. Read-outs that look alike come from different tables or passages of the source.

Experiments:
Mtb strain H37Rv = experiment: Microplate Alamar Blue assay; assay type: cell-based, Mycobacterium tuberculosis; details: MABA, average of three measurements
[1] = Human liver microsomal stability; details: human liver microsomes; for Remaining (NCF = 60 min): without the NADPH cofactor
Vero cells = experiment: Cytotoxicity against Vero cells; assay type: cell-based, African green monkey; details: Chlorocebus sabaeus, read-out: Vero cells IC50, Vero cells
Mtb V4207 = experiment: microbe, parasite or virus in culture; assay type: cell-based; details: Mycobacterium tuberculosis, V4207, read-out: Mtb MIC V4207/ DS
[2] = tested on: clinically isolated strains of MDR/XDR-TB; experiment: microbe, parasite or virus in culture; assay type: cell-based, Mycobacterium tuberculosis

Row | SMILES | MIC (Mtb strain H37Rv) [µg/mL] | Remaining (NCF = 60 min) [1] | further results
1 | CC(C)c1ccc(-c2cccc(CN3CC[Si](C)(C)CC3)n2)cc1 [Compound 13, 1-((6-(4-Isopropylphenyl)pyridin-2-yl)methyl)-4,4-dimethyl-1,4-azasilinane] | 4 to 8 |  | 
2 | CC(C)c1ccc(-c2cc(CN3CC[Si](C)(C)CC3)ccn2)cc1 [Compound 17, 1-((2-(4-Isopropylphenyl)pyridin-4-yl)methyl)-4,4-dimethyl-1,4-azasilinane] | 4 to 8 |  | 
3 | CC(C)c1ccc(-c2cc(CN3CC[Si](C)(C)CC3)ncn2)cc1 [Compound 27, 4-((4,4-Dimethyl-1,4-azasilinan-1-yl)methyl)-6-(4-isopropylphenyl)pyrimidine] | 4 to 8 |  | 
4 | CC(C)c1ccc(-c2ccnc(CN3CCC4(CCCC4)CC3)c2)cc1 [Compound 37, 8-((4-(4-Isopropylphenyl)pyridin-2-yl)methyl)-8-azaspiro[4.5]decane] |  | stable | 
5 | c1ccc(-c2ccc(-c3ccnc(CN4CCC5(CCCC5)CC4)c3)cc2)cc1 [Compound 62, 8-((4-([1,1'-Biphenyl]-4-yl)pyridin-2-yl)methyl)-8-azaspiro[4.5]decane] |  | stable | IC50 (Vero cells): ≥ 16 µg/mL; MIC (Mtb V4207): 0.0039 µg/mL (≈ 0.0102 µM); MIC [2]: 0.0039 to 0.0625 µg/mL; MIC ([2]; Mycobacterium tuberculosis): 0.004 to 0.063 µg/mL (≈ 0.0105 to 0.165 µM)
6 | c1cc(-c2ccc(-c3ccoc3)cc2)cc(CN2CCC3(CCCC3)CC2)n1 [Compound 68, 8-((4-(4-(Furan-3-yl)phenyl)pyridin-2-yl)methyl)-8-azaspiro[4.5]decane] |  | stable | 
7 | O=C(O)Cc1ccccc1Nc1c(Cl)cccc1Cl [Diclofenac, reference compound] |  | stable | Remaining (T = 60 min) ([1]; with NADPH, after 60 min): 0.4%
8 | C[C@]12CC[C@H]3[C@@H](CCC4=CC(=O)CC[C@@]43C)[C@@H]1CC[C@@H]2O [Testosterone, reference compound] |  | stable | 
